Reference: PubChem BioAssay (NCI)
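Briefly, cells in 96-well plates were exposed to five compound concentrations for 48 h, and endpoints were estimated by linear interpolation. TGI is the concentration that stops growth completely.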

Columns and labels:
Test in all cases: NCI anticancer screen, dose series, 48 h
CAKI-1 renal = test system: CAKI-1 renal
IGROV1 ovarian = test system: IGROV1 ovarian
MALME-3M melanoma = test system: MALME-3M melanoma
SK-MEL-5 melanoma = test system: SK-MEL-5 melanoma
HT29 colon = test system: HT29 colon
NCI-H522 lung = test system: NCI-H522 lung
K-562 leukemia = test system: K-562 leukemia
MOLT-4 leukemia = test system: MOLT-4 leukemia
RPMI-8226 leukemia = test system: RPMI-8226 leukemia
NCI-H23 lung = test system: NCI-H23 lung
SK-MEL-2 melanoma = test system: SK-MEL-2 melanoma
NCI-H460 lung = test system: NCI-H460 lung
UACC-257 melanoma = test system: UACC-257 melanoma
NCI/ADR-RES ovarian = test system: NCI/ADR-RES ovarian
NCI-H226 lung = test system: NCI-H226 lung
HCT-15 colon = test system: HCT-15 colon
SF-268 CNS = test system: SF-268 CNS
EKVX NSCLC = test system: EKVX NSCLC
SK-MEL-28 melanoma = test system: SK-MEL-28 melanoma
HOP-92 NSCLC = test system: HOP-92 NSCLC

Row | Structure (SMILES) | TGI (CAKI-1 renal) [µM] | TGI (IGROV1 ovarian) [µM] | TGI (MALME-3M melanoma) [µM] | TGI (SK-MEL-5 melanoma) [µM] | TGI (HT29 colon) [µM] | TGI (NCI-H522 lung) [µM] | TGI (K-562 leukemia) [µM] | TGI (MOLT-4 leukemia) [µM] | TGI (RPMI-8226 leukemia) [µM] | TGI (NCI-H23 lung) [µM] | TGI (SK-MEL-2 melanoma) [µM] | TGI (NCI-H460 lung) [µM] | TGI (UACC-257 melanoma) [µM] | TGI (NCI/ADR-RES ovarian) [µM] | TGI (NCI-H226 lung) [µM] | TGI (HCT-15 colon) [µM] | TGI (SF-268 CNS) [µM] | TGI (EKVX NSCLC) [µM] | TGI (SK-MEL-28 melanoma) [µM] | TGI (HOP-92 NSCLC) [µM]
1 | CCOc1ccc2nc(-c3ccc(O)cc3)sc2c1 | > 100 | > 100 | > 100 | > 100 | > 100 | 89.7 | > 100 | > 100 | 2.63 | > 100 | > 100 | > 100 | 64.5 | > 100 | > 100 | > 100 | 91.3 | 55.2 |  | 
2 | CC1(C)CC23C4COC(=O)C2CCC1C3CC4=O (stereo not given) | 43 | 69 | 23.3 | 32.7 | 95.2 | 11.2 | 123 | 63.2 | 48.6 | 10.8 | 40.6 | 29.8 | 26.3 | 24.8 | 20.6 | 21.9 | 50.9 | 83.8 | 18.9 | 29.3
3 | O=[N+]([O-])c1nc(-c2ccccn2)[nH]c1[N+](=O)[O-] | > 100 | > 100 | > 100 | > 100 | > 100 | 37.1 | > 100 | > 100 | > 100 | > 100 | > 100 | > 100 | > 100 |  | > 100 |  | > 100 | > 100 | > 100 | > 100
4 | O=C1OC(c2ccccc2)=N/C1=C\c1cccnc1 |  | > 100 |  | > 100 | > 100 | > 100 | > 100 | > 100 | > 100 | > 100 | > 100 | > 100 | > 100 | > 100 | > 100 | > 100 | > 100 | > 100 | > 100 | > 100
5 | N/C(=N\N=C/c1ccccc1O)NO | 24 | > 100 | > 84.1 | > 100 | > 42 | 29.8 | > 77.6 | > 70.2 | 27 | 53.9 | > 90.8 | > 43.7 | > 100 | 44.2 | 64.8 | > 100 | 90.5 | 71.4 | > 100 | > 67.6
6 | COc1cc2c(cc1OC)-c1cc3ccccc3c[n+]1CC2 | > 100 | > 100 | 54.3 | > 100 | > 100 | 68.3 | > 100 | > 100 | > 100 | > 100 | > 100 | > 100 | > 100 | > 100 | > 100 |  | > 100 | > 100 | > 100 | > 100
7 | Nc1ncnc2c1ncn2C1OC(COP(=O)(O)O)C(O)C1O (stereo not given) | > 50 | > 50 | > 50 | > 50 | > 50 | > 50 | > 50 | > 50 | > 50 | > 50 | > 50 | > 50 | > 50 | > 32.2 | > 50 | > 50 | > 50 | > 50 | > 50 | > 46.6
8 | O=C1OC[C@@H]2[C@@H](O)CCCCCN12 | > 100 | > 100 |  | > 100 | > 100 | > 100 | > 100 | > 100 | > 100 |  | > 100 | > 100 | > 100 | > 100 | > 100 | > 100 |  | > 100 | > 100 | > 100
